For one data set, the system named is S. typhimurium CVCC533. Type of data set: cell-based, Salmonella typhimurium. Conditions: repeated three times; for MBC: lowest concentration giving 99.9% reduction of the inoculum; for MIC: microtiter broth dilution, 10^5 CFU/mL, 37 °C, 16 ~ 18 h. The protocol: The minimum inhibitory concentration (MIC) and minimum bactericidal concentration (MBC) of peptides were determined by the microtiter broth dilution method according to Clinical and Laboratory Standards Institute (CLSI) guidelines. […] PBS was used as the negative control. […] The MBC value was calculated as the lowest concentration of peptides resulting in a 99.9% reduction of the original inoculum. All experiments were repeated three times.

The nature of data set [1]: Serum stability in mouse serum (RP-HPLC). The data set is classed as in vitro ADME. Conditions: 25% mouse serum; for remaining at 0.5 h, 0.5 mM / remaining at 1 h, 0.5 mM / remaining at 2 h, 0.5 mM / remaining at 4 h, 0.5 mM / remaining rate in mouse serum / remaining at 8 h, 0.5 mM: peptide 0.5 mM, mean of three; for remaining at 0.5 h, 0.5 mM / remaining at 1 h, 0.5 mM / remaining at 2 h, 0.5 mM / remaining at 4 h, 0.5 mM / remaining at 8 h, 0.5 mM: read-out: remaining rate in mouse serum; for remaining rate in mouse serum / remaining at 8 h, 0.5 mM: 8 h; for peptide remained intact in mouse serum: range from 2 h to 8 h of incubation. The protocol:
Serum stability of R7 and its parent-L7 was tested as previously described with minor modifications[46],[53]. Briefly, each peptide was added to the 25% mouse serum to a final concentration of 0.5 mM; 250 µL aliquots of samples were taken at 0, 0.5, 1, 2, 4 and 8 h, and mixed with 20 µL 15% trichloroacetic acid (TCA). The samples were incubated at 4 °C for 15 min and centrifuged for 10 min at 12,000 rpm. The supernatants were analyzed by RP-HPLC or inhibition zone method. Moreover, after incubation in serum for 2 h, R7 was analyzed by matrix assisted laser desorption/ionization-time of flight mass spectrometry (MALDI-TOF MS) and high-performance liquid chromatography-mass spectrometry (HPLC-MS), respectively.

The subject of a further data set is MDR E. coli CVCC195. The experiment in a line: Mouse survival, preventive treatment before MDR E. coli challenge. Particulars: 7 μmol/kg i.p. at 0 h, MDR E. coli CVCC195 0.5 × 10^9 CFU/mouse i.p. at 6 h; five mice/group. The data set is classed as in vivo. The protocol: A sepsis mouse model established in our laboratory was used to evaluate the prevention effect of peptides. […] The survival rate of mice was recorded for 7 days. The mice injected with saline were used as negative control.

Data set [2] concerns p65, p-p65, ERK1/2, p-ERK1/2 and IκBα. The data set is described as follows: Western blotting of NF-κB and MAPK pathway proteins in lung tissues of LPS-challenged mice. Type of data set: in vivo, mouse. Conditions: for IκBα/β-actin ratio / p-ERK1/2/ERK1/2 ratio / p-p65/p65 ratio: Supplementary Fig. 5b-d source data, lung tissues, peptide + LPS, mean; for ERK1/2 phosphorylation: lung tissues of 24 h, western blot. The protocol: Additionally, the lung tissues of 24 h were homogenized and suspended in […] buffer, and the protein levels of supernatants were quantified using a Bradford protein assay kit. A total of 30 μg proteins were analyzed on a sodium dodecyl sulfate-polyacrylamide gel electrophoresis gel and were immunoblotted onto PVDF membranes, followed by an incubation with the primary antibodies of p65, p-p65, extracellular signal-regulated kinase (ERK)1/2, p-ERK1/2 and IκBα overnight at 4 °C. After washing, the blots were incubated with the peroxidase conjugated goat-rabbit or goat-mouse antibodies. Relative protein expression levels were quantified by a densitometric measurement of chemiluminescence (ECL) reaction band. β-actin was used as the internal reference. […]
pathways in lung tissues.
LPS. a The protein levels of p65, p-p65, ERK1/2, p-ERK1/2, and IκBα in lungs were analyzed by western blotting. b Densitometric analysis of p-ERK1/2/ERK1/2 ratio. c. Densitometric analysis of p-p65/p65 ratio. d Densitometric analysis of IκBα/β-actin ratio. All data were analyzed with one-way ANOVA, and data are means ± SD (n = 3). p-values< 0.05 were considered significant. **, p < 0.01, […]
(1 picture or pasted object on this page, not shown here)

The test system of another data set is LPS. Type of data set: in vivo, mouse. The arrangement: key: 1 represents a mouse death; 0 represents no death. Particulars: Supplementary Fig. 3b source data, LPS challenge. The protocol: Supplementary Figure 3. Therapeutic eﬀicacy of cleavable chimeric peptide R7 in the mice
challenged with MDR E. coli or LPS After the intraperitoneal injection with MDR E. coli (a) or LPS
(b) at a concentration of LD100, the mice were treated with 7 μmol/kg R7 at 0.5 h and 8 h, respectively.
The mouse survival was recorded for 7 d. The mice injected with MDR E. coli/LPS or saline were used

Data set [3] can be described thus: Detection of R7 in mouse blood after injection (RP-HPLC). Type of data set: in vivo. Particulars: R7 10 ~ 50 mg/kg intraperitoneal, intravenous or subcutaneous, blood at 5, 30, 60 and 120 min. The protocol:
To further study the cleavage efficiency of chimeric peptide R7, the mice were injected with R7 (10 ~ 50 mg/kg) by different routes, including intraperitoneal, intravenous or subcutaneous ones, respectively; blood was taken from the orbits at different time (5, 30, 60, and 120 min, respectively) and detected by RP-HPLC. […] Here are several conditions that may negatively impact RP-HPLC detection results: (i) R7 may bind to other proteins such as plasma protein and form aggregates; (ii) the concentration of R7 after cleavage was too low to detect target peptide by RP-HPLC; (iii) R7 may be degraded by some cellular proteases present in serum in vivo[45]. Furthermore, we used more sensitive liquid chromatograph mass spectrometer (LC-MS) to detect R7 and its possible degradation products in mice. […] We further used MALDI-TOF MS with higher resolution to analyze R7 degradation products in blood. As shown in Supplementary Table 5, R7 was cleaved into two dual-function fragments in the serum principally, including one from position 1 to 15 that can target LPS and the other mainly from position 18 to 35 that has antibacterial activity. […] In addtion, in vivo stability of peptides in blood has been well modeled by ex vivo stability in serum. […] In fact, several strategies have been proposed to improve the stability of AMPs. […]

The mark [4] stands for this setting: event at day 2, one cell per mouse.
Where [5] appears, read: event at day 3, one cell per mouse.
Setting [6] is: event at day 7, one cell per entry.

Structures are written as SMILES. Converted amounts (≈) assume the structure as drawn. Where two headings read alike, the source gives them in different places. Residues, ends and D or L forms follow the SMILES beside them.

By MBC is commonly meant the smallest concentration meeting the test's criterion for killing. As usually defined, the MIC is the least concentration at which growth counts as inhibited.

As to `CSCC[C@H](NC(=O)[C@H](CCCNC(=N)N)NC(=O)[C@H](Cc1c[nH]c2ccccc12)NC(=O)[C@H](C)NC(=O)[C@H](Cc1c[nH]c2ccccc12)NC(=O)[C@H](CCCNC(=N)N)NC(=O)[C@H](Cc1c[nH]c2ccccc12)NC(=O)[C@H](C)NC(=O)[C@H](CCCCN)NC(=O)[C@H](Cc1ccccc1)NC(=O)[C@H](CCCNC(=N)N)NC(=O)[C@H](CCCNC(=N)N)NC(=O)[C@H](CCCCN)NC(=O)[C@H](CCCNC(=N)N)NC(=O)[C@H](CCCCN)NC(=O)[C@H](Cc1ccccc1)NC(=O)[C@H](Cc1ccccc1)NC(=O)[C@H](CO)NC(=O)[C@H](C)NC(=O)[C@H](CCCNC(=N)N)NC(=O)[C@@H](NC(=O)[C@H](CCCCN)NC(=O)[C@H](Cc1c[nH]c2ccccc12)NC(=O)[C@H](CCCNC(=N)N)NC(=O)CNC(=O)[C@H](CCC(N)=O)NC(=O)[C@@H](NC(=O)[C@@H](N)CCCNC(=N)N)C(C)C)C(C)C)C(=O)N[C@@H](CCCCN)C(=O)N[C@@H](CCCCN)C(=O)N[C@@H](CC(C)C)C(=O)N[C@@H](C)C(=O)N[C@@H](C)C(=O)N1CCC[C@H]1C(=O)N[C@@H](CO)C(=O)O` [R7] (H-RVQGRWKVRASFFKRKRRFKAWRWAWRMKKLAAPS-OH), in the data set on S. typhimurium CVCC533, the MBC was 2.26 µM (≈ 10.1 µg/mL) and the minimal inhibitory concentration (MIC) came to 1.13 µM (≈ 5.06 µg/mL). Also, in data set [1], the fraction remaining at 0.5 h, 0.5 mM stood at 101%; the share remaining at 1 h, 0.5 mM amounted to 81.6%; the amount remaining at 2 h, 0.5 mM came out at 29.8%; the amount remaining at 4 h, 0.5 mM amounted to 21.2%. Moreover, in data set [1], the “remaining rate in mouse serum” value is reported as ~ 20%; the fraction remaining at 8 h, 0.5 mM was 21.7%; the “peptide remained intact in mouse serum” value is on record as 29.8 ~ 21.7%. Besides, the “mouse survival at 7 days” value in the data set on MDR E. coli CVCC195 was determined as 100%. For the same compound, in data set [2], the IκBα/β-actin ratio came to 1.322, the p-ERK1/2/ERK1/2 ratio is recorded as 1.134, the p-p65/p65 ratio is 0.775 and the ERK1/2 phosphorylation result is recorded as “not markedly attenuated”. The “therapeutic efficacy, survival, single-animal event” value (“therapeutic efficacy, survival” below) with LPS (setting [4]) came to 1. Also, the “therapeutic efficacy, survival” value with LPS (setting [5]) is given as 1. For the same compound, the “therapeutic efficacy, survival” value in the data set on LPS (setting [6]) is given as 0. Moreover, the “target peak in mouse blood” value in data set [3] is listed as “not detected”.
For `CSCC[C@H](NC(=O)[C@H](CCCNC(=N)N)NC(=O)[C@H](Cc1c[nH]c2ccccc12)NC(=O)[C@H](C)NC(=O)[C@H](Cc1c[nH]c2ccccc12)NC(=O)[C@H](CCCNC(=N)N)NC(=O)[C@H](Cc1c[nH]c2ccccc12)NC(=O)[C@H](C)NC(=O)[C@H](CCCCN)NC(=O)[C@@H](N)Cc1ccccc1)C(=O)N[C@@H](CCCCN)C(=O)N[C@@H](CCCCN)C(=O)N[C@@H](CC(C)C)C(=O)N[C@@H](C)C(=O)N[C@@H](C)C(=O)N1CCC[C@H]1C(=O)N[C@@H](CO)C(=O)O` [L7] (H-FKAWRWAWRMKKLAAPS-OH), in the data set with S. typhimurium CVCC533, the MBC was found to be 18.1 µM (≈ 38.6 µg/mL) and the MIC worked out at 18.1 µM (≈ 38.6 µg/mL). In data set [1], the share remaining at 0.5 h, 0.5 mM turned out to be 74.5%; the share remaining at 1 h, 0.5 mM was found to be 62.7%; the share remaining at 2 h, 0.5 mM came to 25.3%; the share remaining at 4 h, 0.5 mM is 6.01%. In data set [1], the “remaining rate in mouse serum” value was “completely undetectable”; the fraction remaining at 8 h, 0.5 mM was determined as 0.829%; the “peptide remained intact in mouse serum” value is given as 25.3 ~ 0.8%. For the same compound, in the data set on MDR E. coli CVCC195, the “mouse survival at 7 days” value stood at 60%. In addition, in data set [2], the IκBα/β-actin ratio worked out at 1.143, the p-ERK1/2/ERK1/2 ratio is 1.133, the p-p65/p65 ratio was 1.216 and the ERK1/2 phosphorylation result is reported as “not markedly attenuated”. Also, the “therapeutic efficacy, survival” value in the data set with LPS (setting [4]) was determined as 1. For the same compound, the “therapeutic efficacy, survival” value in the data set with LPS (setting [5]) amounted to 1. In addition, the “therapeutic efficacy, survival” value in the data set with LPS (setting [6]) worked out at 0.

For the origin of these results see paper PMC10654507, “A cleavable chimeric peptide with targeting and killing domains enhances LPS neutralization and antibacterial properties against multi-drug resistant E. coli” (Communications Biology, 2023).
